Experimental data as given in US20110105543A1, “NOVEL TRIARYL DERIVATIVES USEFUL AS MODULATORS OF NICOTINIC ACETYLCHOLINE RECEPTORS” (NeuroSearch A/S, priority 2008, published 2011).

Experiments:
nAChR α7 receptors = target: T1, nAChR α7 receptors (Homo sapiens, UniProt P36544); assay: Positive modulation of acetylcholine-induced currents at wild-type nAChR α7 receptors expressed in Xenopus laevis oocytes (two-electrode voltage clamp); assay type: cell-based; settings: for effect on acetylcholine-induced current amplitude: compound 0.01-31.6 μM applied 30 s before and during 100 μM acetylcholine; for maximal modulation of the acetylcholine response (Imax) / EC50: nAChR α7 in Xenopus oocytes, 100 μM acetylcholine; for maximal modulation of the acetylcholine response (Imax): (test-control)/control*100%; for EC50: clamped at -60 mV, compound 0.01-31.6 μM, read-out: calculated EC50 value for positive modulation of 100 μM acetylcholine responses
T1 construct: expressed in transfected cells; host or cells: Xenopus laevis oocytes
Protocol: In this example the positive modulation of wild-type nAChR α7 receptors by Compound 2 (i.e. 4-[5-Amino-6-(2,4-dichloro-phenyl)-pyrimidin-4-yl]-phenol; FIGS. 1A and 1B) and by Compound 6 (i.e. 2′-Amino-5′,2″-difluoro-4″-trifluoromethyl-[1,1′;3′,1″]terphenyl-4-ol; FIGS. 2A and 2B) was determined using nAChR α7 receptors heterologously expressed in Xenopus laevis oocytes.
The electrical current through the nAChR α7 channel was measured using conventional two-electrode voltage clamp and nAChR α7 currents were activated by applying pulses of agonist-containing solution onto the nAChR α7 expressing oocyte.
In brief, the oocytes were placed in a recording chambers and continuously superfused with an Oocyte Ringer (OR) solution containing 90 mM NaCl, 2.5 mM KCl, 2.5 mM CaCl2, 1 mM MgCl2 and 5 mM HEPES (pH adjusted to 7.4). The oocytes were clamped at −60 mV and currents were induced by applying 20 s pulses of 100 μM acetylcholine dissolved in OR. The intervals between the acetylcholine applications were 5 minutes, during which the oocytes were washed with OR. The first three applications were control applications to insure a constant response level of 100 μM acetylcholine.
The positive modulation in the presence of Compound 2 or Compound 6 was calculated as (test-control)/control*100% and the concentration response curve for this positive modulation was fitted to the sigmoidal logistic equation: I=Imax/(1+(EC50/[compound])^n), where Imax represents the maximal modulation of the control response, EC50 is the concentration causing a half maximal response, and n is the slope coefficient.

T1 sequence (P36544 23-502): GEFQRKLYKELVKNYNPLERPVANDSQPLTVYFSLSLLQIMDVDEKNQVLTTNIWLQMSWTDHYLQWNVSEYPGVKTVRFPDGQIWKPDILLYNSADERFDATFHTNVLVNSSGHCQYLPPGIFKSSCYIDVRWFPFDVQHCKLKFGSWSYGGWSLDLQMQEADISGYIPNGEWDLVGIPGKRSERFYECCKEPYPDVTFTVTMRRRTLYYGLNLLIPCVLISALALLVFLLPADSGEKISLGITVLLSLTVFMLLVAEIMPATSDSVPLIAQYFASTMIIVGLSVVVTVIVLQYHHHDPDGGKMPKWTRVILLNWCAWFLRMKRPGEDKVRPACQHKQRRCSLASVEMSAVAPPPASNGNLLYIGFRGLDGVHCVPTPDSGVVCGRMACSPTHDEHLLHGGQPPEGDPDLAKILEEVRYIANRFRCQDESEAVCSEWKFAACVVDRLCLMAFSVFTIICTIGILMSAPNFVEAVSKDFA

Row | Compound | melting point [°C] | further results
1 | COc1ccc(-c2nc(C)nc(-c3ccc(C(F)(F)F)cc3F)c2N)cc1 [Compound 15, 4-(2-Fluoro-4-trifluoromethyl-phenyl)-6-(4-methoxy-phenyl)-2-methyl-pyrimidin-5-ylamine] | 129.2 to 130.6 | –
2 | Nc1c(-c2ccc(O)cc2)cc(F)cc1-c1ccc(C(F)(F)F)cc1F [Compound 6, 2′-Amino-5′,2″-difluoro-4″-trifluoromethyl-[1,1′;3′,1″]terphenyl-4-ol] | 97.8 to 98.9 | effect on acetylcholine-induced current amplitude (nAChR α7 receptors): robust increase; maximal modulation of the acetylcholine response (Imax) (nAChR α7 receptors): 361%; EC50 (nAChR α7 receptors): 1.4 µM
3 | Nc1nc(-c2ccc(O)cc2)c(N)c(-c2ccc(C(F)(F)F)cc2F)n1 [Compound 18, 4-[2,5-Diamino-6-(2-fluoro-4-trifluoromethyl-phenyl)-pyrimidin-4-yl]-phenol] | 226.3 to 227.5 | –
4 | COc1ccc(-c2nc(C)nc(-c3ccc(C(F)(F)F)cc3F)c2[N+](=O)[O-])cc1 [Compound 13, 4-(2-Fluoro-4-trifluoromethyl-phenyl)-6-(4-methoxy-phenyl)-2-methyl-5-nitro-pyrimidine] | 100.8 to 101.8 | –
5 | Cc1nc(-c2ccc(O)cc2)c(N)c(-c2ccc(C(F)(F)F)cc2F)n1 [Compound 16, 4-[5-Amino-6-(2-fluoro-4-trifluoromethyl-phenyl)-2-methyl-pyrimidin-4-yl]-phenol] | 175.4 to 176.9 | –
6 | Nc1c(-c2ccc3[nH]ccc3c2)cncc1-c1ccc(C(F)(F)F)cc1F [Compound 23, 3-(2-Fluoro-4-trifluoromethyl-phenyl)-5-(1H-indol-5-yl)-pyridin-4-ylamine] | 103 to 106 | –
7 | Nc1c(-c2ccc(O)cc2)cnnc1-c1ccc(C(F)(F)F)cc1F [Compound 20, 4-[5-Amino-6-(2-fluoro-4-trifluoromethyl-phenyl)-pyridazin-4-yl]-phenol] | 251 to 252.2 | –
8 | Nc1c(-c2ccc(O)cc2)ncnc1-c1ccc(Cl)cc1Cl [Compound 2, 4-[5-Amino-6-(2,4-dichloro-phenyl)-pyrimidin-4-yl]-phenol] | 97.3 to 98.2 | effect on acetylcholine-induced current amplitude (nAChR α7 receptors): robust increase; maximal modulation of the acetylcholine response (Imax) (nAChR α7 receptors): 299%; EC50 (nAChR α7 receptors): 1.2 µM
9 | COc1ccc(-c2nc(N)nc(-c3ccc(C(F)(F)F)cc3F)c2N)cc1 [Compound 17, 4-(2-Fluoro-4-trifluoromethyl-phenyl)-6-(4-methoxy-phenyl)-pyrimidine-2,5-diamine] | 125.8 to 127.1 | –
10 | COc1ccc(-c2ncnc(-c3ccc(C(F)(F)F)cc3F)c2N)c(OC)c1 [Compound 7, 4-(2,4-Dimethoxy-phenyl)-6-(2-fluoro-4-trifluoromethyl-phenyl)-pyrimidin-5-ylamine] | 191.5 to 192.8 | –
11 | Nc1c(-c2ccc3[nH]ccc3c2)ncnc1-c1ccc(C(F)(F)F)cc1F [Compound 10, 4-(2-Fluoro-4-trifluoromethyl-phenyl)-6-(1H-indol-5-yl)-pyrimidin-5-ylamine] | 216.1 to 217.8 | –
12 | Nc1c(-c2ccc(O)cc2)cncc1-c1ccc(C(F)(F)F)cc1F [Compound 22, 4-[4-Amino-5-(2-fluoro-4-trifluoromethyl-phenyl)-pyridin-3-yl]-phenol] | 133.6 to 134.8 | –
13 | COc1ccc(-c2ncnc(-c3ccc(Cl)cc3Cl)c2N)cc1 [Compound 1, 4-(2,4-Dichloro-phenyl)-6-(4-methoxy-phenyl)-pyrimidin-5-ylamine] | 141.3 to 142.1 | –
14 | Nc1c(-c2ccc(S(N)(=O)=O)cc2)ncnc1-c1ccc(C(F)(F)F)cc1F [Compound 11, 4-[5-Amino-6-(2-fluoro-4-trifluoromethyl-phenyl)-pyrimidin-4-yl]-benzenesulfonamide] | 174.8 to 176.1 | –
15 | COc1ccc(-c2ncnc(-c3ccc(C(F)(F)F)cc3F)c2N)c(O)c1 [Compound 9, 2-[5-Amino-6-(2-fluoro-4-trifluoromethyl-phenyl)-pyrimidin-4-yl]-5-methoxy-phenol] | 150 to 151.5 | –
16 | COc1ccc(-c2nc(C)nc(-c3ccc(C(F)(F)F)cc3F)c2N)cc1Cl [Compound 12, 4-(3-Chloro-4-methoxy-phenyl)-6-(2-fluoro-4-trifluoromethyl-phenyl)-2-methyl-pyrimidin-5-ylamine] | 104.5 to 105.2 | –
17 | COc1ccc(-c2cnnc(-c3ccc(C(F)(F)F)cc3F)c2N)cc1 [Compound 19, 3-(2-Fluoro-4-trifluoromethyl-phenyl)-5-(4-methoxy-phenyl)-pyridazin-4-ylamine] | 215.3 to 216.2 | –
18 | Cc1nc(-c2ccc3c(c2)OCO3)c(N)c(-c2ccc(C(F)(F)F)cc2F)n1 [Compound 14, 4-Benzo[1,3]-dioxol-5-yl-6-(2-fluoro-4-trifluoromethyl-phenyl)-2-methyl-pyrimidin-5-ylamine] | 162.5 to 163.3 | –
19 | Nc1c(-c2ccc(S(N)(=O)=O)cc2)cc(F)cc1-c1ccc(C(F)(F)F)cc1F [Compound 25, 2′-Amino-5′,2″-difluoro-4″-trifluoromethyl-[1,1′;3′,1″]terphenyl-4-sulfonic acid amide] | 189.4 to 191.2 | –
20 | COc1ccc(-c2cncc(-c3ccc(C(F)(F)F)cc3F)c2N)cc1 [Compound 21, 3-(2-Fluoro-4-trifluoromethyl-phenyl)-5-(4-methoxy-phenyl)-pyridin-4-ylamine] | 169.5 to 170.3 | –
21 | COc1ccc(-c2cc(F)cc(-c3ccc(C(F)(F)F)cc3F)c2N)cc1 [Compound 5, 5′,2″-Difluoro-4-methoxy-4″-trifluoromethyl-[1,1′;3′,1″]terphenyl-2′-ylamine] | 85.2 to 86.3 | –
